# Assay results published in patent US11231416B2, “Virus-like particle (VLP) based small molecule-protein interaction trap” (VIB VZW, priority 2015, dated 2022).
# Columns and labels:
# Test in all cases: Viral trapping in VLPs, MS analysis
# Assay type in all cases: binding
# ATL2 = target: T1, ATL2 (Homo sapiens, UniProt Q8NHH9); details: all proteins (incl. low confidence identifications)
# T1 construct: endogenous in cells; host or cells: HEK293T
# Procedure: (§1) For mass spectrometry, 10^7 HEK293T cells were seeded in five flasks (75 cm^2) and transfected the next day with a total of 15 μg DNA per flask using polyethylene imine reagent. The following DNA quantities were used per flask: 7.5 μg of GAG-eDHFR, 5.4 μg of mock vector and 2.1 μg of a 50/50 mix of pMD2.G and pcDNA3-FLAG-VSV-G. The small molecule fusions were added immediately after transfection to the producing cells at a concentration of 1 μM. The same dilution of dimethyl sulfoxide (DMSO) was added in control experiments to control the effect of this chemical on the cells. The cellular supernatant was harvested after 32 hours and was centrifuged for 3 minutes at 450×g to remove cellular debris. The cleared supernatant was then filtered using 0.45 μm filters (Millipore). A total of 100 μl MyOne™ Streptavidin T1 beads (Life Technologies) pre-loaded with 10 μg ANTI-FLAG® BioM2-Biotin antibody (Sigma-Aldrich®) was used to bind the tagged particles. Particles were allowed to bind for 2 hours by end-over-end rotation. The total supernatant was processed in three consecutive binding steps. Bead-particle complexes were washed once with washing buffer (TWB: 20 mM Tris-HCl pH 7.5, 150 mM NaCl) and were then eluted with FLAG peptide (200 μg/ml in TWB) and lysed by addition of SDS to a final concentration of 0.1%. After 5 minutes, SDS was removed using HiPPR Detergent Removal Spin Columns (Pierce, Thermo Scientific) followed by boiling and overnight digestion with 0.5 μg sequence-grade trypsin (Promega). After acidification (0.1% TFA final), the peptides were separated by nano-LC and directly analyzed with a Q Exactive instrument (Thermo Scientific).
# (§2) For tamoxifen, four biological repeats were performed where the cells were treated with MTX-PEG6-tamoxifen after transfection. The obtained protein lists after viral trapping and MS analysis were challenged with protein lists coming from the four DMSO controls, the 19 control experiments and the lists obtained for the MTX-PEG6-simvastatin and MTX-PEG6-reversine (see below) for a total of 30 samples.
# CALU = target: T2, CALU (Homo sapiens, UniProt O43852); details: all proteins (incl. low confidence identifications)
# T2 construct: endogenous in cells; host or cells: HEK293T
# Procedure: as §1, §2
# CGN1 = target: T3, CGN1 (Bos taurus, UniProt P23805); details: all proteins (incl. low confidence identifications)
# T3 construct: host or cells: VLPs from HEK293T supernatant
# Procedure: as §1, §2
# CYP51A1 = target: T4, CYP51A1 (Homo sapiens, UniProt Q16850); details: all proteins (incl. low confidence identifications)
# T4 construct: endogenous in cells; host or cells: HEK293T
# Procedure: as §1, §2
# ESYT2 = target: T5, ESYT2 (Homo sapiens, UniProt A0FGR8)
# T5 construct: endogenous in cells; host or cells: HEK293T
# Procedure: as §1, §2
# HSD17B4 = target: T6, HSD17B4 (Homo sapiens, UniProt P51659)
# T6 construct: endogenous in cells; host or cells: HEK293T
# T6 sequence (P51659 1-736): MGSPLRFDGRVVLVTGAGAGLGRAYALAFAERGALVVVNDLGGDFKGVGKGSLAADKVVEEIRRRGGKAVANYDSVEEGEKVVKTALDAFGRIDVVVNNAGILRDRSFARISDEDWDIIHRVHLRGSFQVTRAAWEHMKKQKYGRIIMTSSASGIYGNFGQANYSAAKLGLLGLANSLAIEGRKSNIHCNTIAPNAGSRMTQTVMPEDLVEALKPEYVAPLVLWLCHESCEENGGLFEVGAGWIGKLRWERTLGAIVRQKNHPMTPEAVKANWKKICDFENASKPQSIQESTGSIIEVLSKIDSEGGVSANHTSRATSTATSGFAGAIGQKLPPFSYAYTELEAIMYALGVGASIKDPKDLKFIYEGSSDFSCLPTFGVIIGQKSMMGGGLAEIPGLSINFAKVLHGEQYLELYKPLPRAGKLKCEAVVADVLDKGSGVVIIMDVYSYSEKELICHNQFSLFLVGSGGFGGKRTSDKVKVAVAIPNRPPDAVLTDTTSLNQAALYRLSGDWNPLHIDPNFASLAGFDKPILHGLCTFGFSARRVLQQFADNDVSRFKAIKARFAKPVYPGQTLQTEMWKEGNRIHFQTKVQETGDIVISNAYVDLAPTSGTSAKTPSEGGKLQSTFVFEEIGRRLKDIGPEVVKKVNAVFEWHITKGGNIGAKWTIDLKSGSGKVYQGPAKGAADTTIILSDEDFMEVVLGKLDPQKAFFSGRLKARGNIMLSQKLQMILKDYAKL
# Procedure: as §1, §2
# ILVBL = target: T7, ILVBL (Homo sapiens, UniProt A1L0T0); details: all proteins (incl. low confidence identifications)
# T7 construct: endogenous in cells; host or cells: HEK293T
# Procedure: as §1, §2
# ITPRIPL1 = target: T8, ITPRIPL1 (Homo sapiens, UniProt Q6GPH6); details: all proteins (incl. low confidence identifications)
# T8 construct: endogenous in cells; host or cells: HEK293T
# Procedure: as §1, §2
# LRRC59 = target: T9, LRRC59 (Homo sapiens, UniProt Q96AG4); details: all proteins (incl. low confidence identifications)
# T9 construct: endogenous in cells; host or cells: HEK293T
# Procedure: as §1, §2
# MDH2 = target: T10, MDH2 (Homo sapiens, UniProt P40926)
# T10 construct: endogenous in cells; host or cells: HEK293T
# Procedure: as §1, §2
# MINK1 = target: T11, MINK1 (Homo sapiens, UniProt Q8N4C8); details: all proteins (incl. low confidence identifications)
# T11 construct: endogenous in cells; host or cells: HEK293T
# Procedure: as §1, §2
# PRAF2 = target: T12, PRAF2 (Homo sapiens, UniProt O60831); details: all proteins (incl. low confidence identifications)
# T12 construct: endogenous in cells; host or cells: HEK293T
# Procedure: as §1, §2
# PTPLAD1 = target: T13, PTPLAD1 (Homo sapiens, UniProt Q9P035); details: all proteins (incl. low confidence identifications)
# T13 construct: endogenous in cells; host or cells: HEK293T
# Procedure: as §1, §2
# RTN3 = target: T14, RTN3 (Homo sapiens, UniProt O95197); details: all proteins (incl. low confidence identifications)
# T14 construct: endogenous in cells; host or cells: HEK293T
# Procedure: as §1, §2
# SEC61B = target: T15, SEC61B (Homo sapiens, UniProt P60468); details: all proteins (incl. low confidence identifications)
# T15 construct: endogenous in cells; host or cells: HEK293T
# Procedure: as §1, §2
# SEC61G = target: T16, SEC61G (Homo sapiens, UniProt P60059)
# T16 construct: endogenous in cells; host or cells: HEK293T
# Procedure: as §1, §2
# SSNA1 = target: T17, SSNA1 (Homo sapiens, UniProt O43805)
# T17 construct: endogenous in cells; host or cells: HEK293T
# Procedure: as §1, §2
# SSR3 = target: T18, SSR3 (Homo sapiens, UniProt Q9UNL2); details: all proteins (incl. low confidence identifications)
# T18 construct: endogenous in cells; host or cells: HEK293T
# Procedure: as §1, §2
# VAPA = target: T19, VAPA (Homo sapiens, UniProt Q9P0L0)
# T19 construct: endogenous in cells; host or cells: HEK293T
# Procedure: as §1, §2
# ZMPSTE24 = target: T20, ZMPSTE24 (Homo sapiens, UniProt O75844); details: all proteins (incl. low confidence identifications)
# T20 construct: endogenous in cells; host or cells: HEK293T
# Procedure: as §1, §2
# [1] = all proteins (incl. low confidence identifications)
# [2] = proteins identified with >1 peptide (high confidence)
# T16 sequence (P60059 whole entry): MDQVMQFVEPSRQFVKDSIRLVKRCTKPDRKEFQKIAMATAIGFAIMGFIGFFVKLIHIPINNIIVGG
# T16 sequence (P61619 whole entry partner): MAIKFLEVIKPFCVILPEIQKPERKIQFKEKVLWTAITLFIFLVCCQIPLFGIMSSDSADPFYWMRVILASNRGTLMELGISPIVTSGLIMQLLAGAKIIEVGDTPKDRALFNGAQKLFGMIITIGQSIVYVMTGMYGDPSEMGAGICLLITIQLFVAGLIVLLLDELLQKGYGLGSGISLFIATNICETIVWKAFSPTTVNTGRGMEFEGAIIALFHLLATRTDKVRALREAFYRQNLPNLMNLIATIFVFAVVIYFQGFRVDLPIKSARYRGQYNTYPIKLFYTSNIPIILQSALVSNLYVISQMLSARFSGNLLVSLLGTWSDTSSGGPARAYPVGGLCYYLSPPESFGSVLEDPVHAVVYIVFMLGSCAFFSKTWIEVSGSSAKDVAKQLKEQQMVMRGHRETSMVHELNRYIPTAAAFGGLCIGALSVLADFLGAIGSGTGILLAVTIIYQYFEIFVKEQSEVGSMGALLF
# T16 sequence (P60468 2-96 partner limits assumed): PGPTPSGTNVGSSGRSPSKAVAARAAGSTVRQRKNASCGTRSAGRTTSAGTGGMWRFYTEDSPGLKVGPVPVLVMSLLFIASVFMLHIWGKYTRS
# T17 sequence (O43805 whole entry): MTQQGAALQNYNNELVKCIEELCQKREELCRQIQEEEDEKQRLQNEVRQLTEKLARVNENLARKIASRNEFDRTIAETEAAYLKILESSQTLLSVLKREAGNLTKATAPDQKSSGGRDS
# T5 sequence (A0FGR8 whole entry): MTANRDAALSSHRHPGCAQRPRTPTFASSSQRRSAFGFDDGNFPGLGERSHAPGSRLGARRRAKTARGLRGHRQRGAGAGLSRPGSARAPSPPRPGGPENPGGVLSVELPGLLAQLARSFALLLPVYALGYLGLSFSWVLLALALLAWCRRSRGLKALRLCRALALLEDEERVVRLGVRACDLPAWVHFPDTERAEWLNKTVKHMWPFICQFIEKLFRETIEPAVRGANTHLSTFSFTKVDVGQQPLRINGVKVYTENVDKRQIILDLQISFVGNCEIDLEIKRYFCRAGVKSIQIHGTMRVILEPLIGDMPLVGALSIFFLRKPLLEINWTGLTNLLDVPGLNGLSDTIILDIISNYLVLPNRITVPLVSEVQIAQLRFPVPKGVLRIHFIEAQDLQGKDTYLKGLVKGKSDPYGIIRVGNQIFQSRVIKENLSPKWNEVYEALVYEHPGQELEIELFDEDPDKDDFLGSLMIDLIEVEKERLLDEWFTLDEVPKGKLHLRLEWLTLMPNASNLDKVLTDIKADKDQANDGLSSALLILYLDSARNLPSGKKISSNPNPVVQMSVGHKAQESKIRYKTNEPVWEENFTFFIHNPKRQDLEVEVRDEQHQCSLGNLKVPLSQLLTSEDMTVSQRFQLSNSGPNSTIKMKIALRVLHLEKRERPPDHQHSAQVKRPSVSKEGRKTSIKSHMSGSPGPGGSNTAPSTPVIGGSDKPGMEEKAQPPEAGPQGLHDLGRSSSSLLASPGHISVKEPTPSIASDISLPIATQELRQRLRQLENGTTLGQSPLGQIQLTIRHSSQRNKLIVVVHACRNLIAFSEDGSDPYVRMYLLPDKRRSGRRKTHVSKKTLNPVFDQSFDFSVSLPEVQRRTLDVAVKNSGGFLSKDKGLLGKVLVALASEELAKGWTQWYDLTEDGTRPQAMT
# T19 sequence (Q9P0L0 whole entry): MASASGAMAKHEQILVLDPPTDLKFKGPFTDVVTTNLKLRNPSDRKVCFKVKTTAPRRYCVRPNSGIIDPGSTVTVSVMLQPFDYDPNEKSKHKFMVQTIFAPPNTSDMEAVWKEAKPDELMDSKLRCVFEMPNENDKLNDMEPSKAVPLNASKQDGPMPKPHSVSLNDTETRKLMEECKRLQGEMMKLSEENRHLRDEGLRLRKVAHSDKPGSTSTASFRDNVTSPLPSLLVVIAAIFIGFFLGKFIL
# T10 sequence (P40926 25-338): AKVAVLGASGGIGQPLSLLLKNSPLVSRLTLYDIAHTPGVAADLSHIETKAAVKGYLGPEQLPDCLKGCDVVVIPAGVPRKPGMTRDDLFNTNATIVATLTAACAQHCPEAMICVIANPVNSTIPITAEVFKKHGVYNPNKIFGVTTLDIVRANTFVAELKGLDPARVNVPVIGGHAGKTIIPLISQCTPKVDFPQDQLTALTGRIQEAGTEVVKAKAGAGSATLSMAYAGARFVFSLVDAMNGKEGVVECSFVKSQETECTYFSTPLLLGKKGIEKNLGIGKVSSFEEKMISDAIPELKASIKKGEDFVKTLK
# T7 sequence (A1L0T0 whole entry): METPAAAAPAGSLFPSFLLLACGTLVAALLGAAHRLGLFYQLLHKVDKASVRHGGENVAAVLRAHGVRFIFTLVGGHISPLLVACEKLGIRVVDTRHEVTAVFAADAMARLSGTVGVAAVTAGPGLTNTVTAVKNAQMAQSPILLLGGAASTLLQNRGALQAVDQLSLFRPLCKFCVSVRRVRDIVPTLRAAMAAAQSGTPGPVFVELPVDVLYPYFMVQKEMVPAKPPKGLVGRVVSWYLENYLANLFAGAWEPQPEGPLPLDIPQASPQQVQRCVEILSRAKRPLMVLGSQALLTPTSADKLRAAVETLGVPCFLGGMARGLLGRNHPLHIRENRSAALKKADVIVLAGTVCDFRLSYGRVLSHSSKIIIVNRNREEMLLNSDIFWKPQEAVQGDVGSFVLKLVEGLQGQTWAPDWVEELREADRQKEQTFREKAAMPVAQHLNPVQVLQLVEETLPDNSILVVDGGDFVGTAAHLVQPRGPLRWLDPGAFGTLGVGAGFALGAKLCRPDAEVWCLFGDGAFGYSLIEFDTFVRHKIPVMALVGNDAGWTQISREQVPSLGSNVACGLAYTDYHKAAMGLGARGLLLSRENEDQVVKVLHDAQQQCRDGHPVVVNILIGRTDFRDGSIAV
# T13 sequence (Q9P035 whole entry): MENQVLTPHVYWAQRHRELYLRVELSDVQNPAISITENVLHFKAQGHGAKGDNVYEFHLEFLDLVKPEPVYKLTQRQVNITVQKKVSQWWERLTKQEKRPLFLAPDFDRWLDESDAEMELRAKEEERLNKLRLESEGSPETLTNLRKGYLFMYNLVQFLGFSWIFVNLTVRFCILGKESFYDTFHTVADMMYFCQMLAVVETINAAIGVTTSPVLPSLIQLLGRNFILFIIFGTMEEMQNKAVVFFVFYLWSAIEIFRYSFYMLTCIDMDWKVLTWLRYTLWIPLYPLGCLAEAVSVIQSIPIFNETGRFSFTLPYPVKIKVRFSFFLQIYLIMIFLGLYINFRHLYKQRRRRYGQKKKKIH
# T8 sequence (Q6GPH6 25-555): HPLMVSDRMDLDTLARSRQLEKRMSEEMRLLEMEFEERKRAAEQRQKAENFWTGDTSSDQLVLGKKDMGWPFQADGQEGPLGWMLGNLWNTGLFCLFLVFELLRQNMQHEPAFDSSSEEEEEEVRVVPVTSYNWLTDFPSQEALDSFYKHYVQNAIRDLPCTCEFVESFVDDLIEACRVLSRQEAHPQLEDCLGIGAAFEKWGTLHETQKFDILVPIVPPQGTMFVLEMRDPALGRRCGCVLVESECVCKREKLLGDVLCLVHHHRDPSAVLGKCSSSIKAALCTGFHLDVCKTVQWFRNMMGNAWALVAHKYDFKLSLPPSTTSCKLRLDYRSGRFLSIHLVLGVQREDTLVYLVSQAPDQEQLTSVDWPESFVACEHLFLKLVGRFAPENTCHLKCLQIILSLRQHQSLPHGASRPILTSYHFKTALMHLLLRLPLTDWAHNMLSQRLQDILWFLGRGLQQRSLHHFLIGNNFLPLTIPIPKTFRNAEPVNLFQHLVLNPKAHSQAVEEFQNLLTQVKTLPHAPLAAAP
# T20 sequence (O75844 whole entry): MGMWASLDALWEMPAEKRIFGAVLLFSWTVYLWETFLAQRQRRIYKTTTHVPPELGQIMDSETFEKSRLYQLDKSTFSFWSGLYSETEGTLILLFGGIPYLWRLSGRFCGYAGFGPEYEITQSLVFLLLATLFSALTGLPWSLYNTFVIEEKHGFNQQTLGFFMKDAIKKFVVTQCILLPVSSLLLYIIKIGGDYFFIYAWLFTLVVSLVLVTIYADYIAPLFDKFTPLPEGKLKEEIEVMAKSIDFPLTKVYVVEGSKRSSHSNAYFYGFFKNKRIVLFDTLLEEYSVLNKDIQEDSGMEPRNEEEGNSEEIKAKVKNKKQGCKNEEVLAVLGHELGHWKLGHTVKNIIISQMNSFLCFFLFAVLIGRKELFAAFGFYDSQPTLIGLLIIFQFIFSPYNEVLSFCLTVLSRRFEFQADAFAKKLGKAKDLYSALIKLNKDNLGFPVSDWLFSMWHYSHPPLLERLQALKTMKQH
# T3 sequence (P23805 21-371): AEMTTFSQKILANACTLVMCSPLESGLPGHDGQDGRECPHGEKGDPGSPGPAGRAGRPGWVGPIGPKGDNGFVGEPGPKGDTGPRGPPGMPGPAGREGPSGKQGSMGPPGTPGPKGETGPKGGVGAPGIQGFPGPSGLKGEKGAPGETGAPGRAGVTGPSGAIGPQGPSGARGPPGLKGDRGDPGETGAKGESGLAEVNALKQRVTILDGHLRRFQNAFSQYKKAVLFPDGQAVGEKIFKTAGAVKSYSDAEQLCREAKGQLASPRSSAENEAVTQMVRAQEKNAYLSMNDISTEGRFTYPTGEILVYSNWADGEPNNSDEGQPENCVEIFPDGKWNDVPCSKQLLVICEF
# T2 sequence (O43852 20-315): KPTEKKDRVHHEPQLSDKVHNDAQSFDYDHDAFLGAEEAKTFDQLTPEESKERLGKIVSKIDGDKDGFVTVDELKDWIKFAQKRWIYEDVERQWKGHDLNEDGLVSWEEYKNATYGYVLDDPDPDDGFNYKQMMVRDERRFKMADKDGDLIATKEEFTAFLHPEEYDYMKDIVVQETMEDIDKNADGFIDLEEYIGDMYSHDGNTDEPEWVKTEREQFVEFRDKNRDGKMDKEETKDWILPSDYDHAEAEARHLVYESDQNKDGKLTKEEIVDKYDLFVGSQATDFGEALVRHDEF
smiles,measurement,setting,value
CCC(=C(c1ccccc1)c1ccc(OCCN(C)Cc2cn(CCOCCOCCOCCOCCOCCNC(=O)CCC(NC(=O)c3ccc(N(C)Cc4cnc5nc(N)nc(N)c5n4)cc3)C(=O)O)nn2)cc1)c1ccccc1 (centres unmarked) [MTX-PEG6-tamoxifen],Recurrence (x/4),ATL2,1 x/4
same,Recurrence (x/4),CALU,1 x/4
same,Recurrence (x/4),CGN1,1 x/4
same,Recurrence (x/4),CYP51A1,1 x/4
same,Recurrence (x/4),ESYT2; [1],1 x/4
same,Recurrence (x/4),ESYT2; [2],1 x/4
same,Recurrence (x/4),HSD17B4; [1],4 x/4
same,Recurrence (x/4),HSD17B4; [2],4 x/4
same,Recurrence (x/4),ILVBL,1 x/4
same,Recurrence (x/4),ITPRIPL1,1 x/4
same,Recurrence (x/4),LRRC59,1 x/4
same,Recurrence (x/4),MDH2; [1],1 x/4
same,Recurrence (x/4),MDH2; [2],1 x/4
same,Recurrence (x/4),MINK1,1 x/4
same,Recurrence (x/4),PRAF2,1 x/4
same,Recurrence (x/4),PTPLAD1,1 x/4
same,Recurrence (x/4),RTN3,1 x/4
same,Recurrence (x/4),SEC61B,1 x/4
same,Recurrence (x/4),SEC61G; [1],2 x/4
same,Recurrence (x/4),SEC61G; [2],1 x/4
same,Recurrence (x/4),SSNA1; [1],4 x/4
same,Recurrence (x/4),SSNA1; [2],2 x/4
same,Recurrence (x/4),SSR3,1 x/4
same,Recurrence (x/4),VAPA; [1],1 x/4
same,Recurrence (x/4),VAPA; [2],1 x/4
same,Recurrence (x/4),ZMPSTE24,1 x/4
